Source: US20130184290A1, “SELF-EMULSIFYING FORMULATIONS AND METHODS OF USE THEREOF” (CAPSUGEL, Inc., priority 2011, published 2013)
Where two headings read alike, the source gives them in different places.

How the values were obtained:
[1] = Previously determined solubility of compound 1; assay type: physicochemical
From the text: Compound 1 has the following previously determined characteristics: […]

[2] = Previously determined hygroscopicity of compound 1; assay type: physicochemical; settings: free base; at 70% relative humidity (RH)
From the text: Compound 1 has the following previously determined characteristics:
(vi) hygroscopicity (for free base): 0.09% at 70% relative humidity (RH);

[3] = Apparent intestinal permeability, Caco-2 cell model; assay type: in vitro ADME; settings: human, Caco-2, pH 7.4
From the text: (§1) Absorption of particular drugs may be limited by biological factors, such as reduced cellular permeability in the intestine. Many cellular mechanisms can influence permeability, such as reduced passive paracellular and transcellular transport or increased active export by the efflux transporter protein P-glycoprotein. Thus, the use of self-emulsifying carriers may not be beneficial for drugs having limited cellular permeability, where methods to increase the solubilization of a drug may not increase its permeability in the gastrointestinal tract. Experiments were conducted to assess the apparent intestinal permeability of compound 1 using a Caco-2 cell model.
(§2) Briefly, Caco-2 cells were used as an in vitro model for predicting absorption through the intestinal epithelium. Confluent monolayers of Caco-2 cells were grown on collagen-coated, microporous, polycarbonate membranes (12-well Costar Transwell® plates) that are placed between two chambers. The apical side of the monolayer was exposed to the buffer solution in a first chamber, but the basolateral side of the monolayer adhered to microporous membranes fluidically connected to a second chamber. The dosing solution was added to the first chamber for measurements in the apical-to-basolateral direction (A-to-B) and to the second chamber for measurements in the basolateral-to-apical direction (B-to-A). […] The permeability assay buffer was Hanks Balanced Salt Solution containing 10 mM HEPES and 15 mM glucose at a pH of 7.4. The buffer in the receiver chamber also contained 1% bovine serum albumin. The dosing solution concentration was 1 μM of compound 1 in the assay buffer. All donor chambers were first pre-incubated for five minutes with dosing solution to attempt to saturate any non-specific binding sites on the device with test compound. After five minutes, the solution was removed and replaced with fresh dosing solution, and time was recorded as 0. Cell monolayers were dosed on the apical side/first chamber (for A-to-B measurements) or basolateral side/second chamber (for B-to-A measurements) and incubated at 37° C. with 5% CO2 in a humidified incubator. At 30 and 60 minutes, aliquots were taken from the receiver chambers and replaced with fresh assay buffer. Samples were taken from the donor chamber at 0 and 60 minutes. Each experiment was performed in triplicate.
(§3) The apparent permeability (Papp), percent recovery, and efflux ratio were calculated as follows: […]
(§4) is the slope of the cumulative concentration in the receiver chamber as a function of time; V, [cm^3] is the volume of the receiver chamber; Vd [cm^3] is the volume of the donor chamber; A [cm^2] is the area of the cell monolayer, which is estimated to be about 1.13 cm^2 for the 12-well Costar Transwell® plates; C0[μM] is the measured concentration in the donor chamber at t=0 hours; CN [μM] is the nominal concentration of the dosing solution; Cr,final [μM] is the cumulative concentration in the receiver chamber at the end of the incubation period; and Cd,final [μM] is the cumulative concentration in the donor chamber at the end of the incubation period.
(§5) Thus, absorption of compound 1 in humans is not expected to be permeability limited.

Caco-2 cells = experiment: as above; assay type: in vitro ADME; settings: for Papp R3: replicate 3
From the text: as §1, §2, §3, §4, §5

[4] = Tolerability of compound 1 doses; assay type: in vivo; settings: doses of up to 1,600 mg
From the text: Yet, compound 1 is also known to have decreased oral bioavailability in the fasted state, as compared to the fed state. Accordingly, the invention provides formulations to increase the oral bioavailability or to reduce patient-to-patient variability in pharmacokinetic behavior of compound 1, compound 2, or a salt thereof. These formulations include use of a self-emulsifying carrier system to provide stable emulsions capable of dissolving therapeutically effective amounts of compound 1, compound 2, or a salt thereof.

[5] = Fed-fasted pharmacokinetics of compound 1 HCl salt; assay type: in vivo; settings: for half-life: human, in vivo, po, read-out: t1/2 for absorption
From the text: The fed-fasted pharmacokinetic data were collected using a “normal fat” meal consisting of toast with 1 pat of butter, a banana, 2% milk, apple juice, and Honey Nut Cheerios®, where the meal has about 501 calories with 99 calories from fat, 346 calories from carbohydrates, and 56 calories from protein; and using a “high fat” meal consisting of 2 eggs fried in butter, 2 strips of bacon, 2 slices of toast with butter, 4 ounces of hash brown potatoes and 8 ounces of whole milk, where the meal has about 1,000 calories with 500-600 calories from fat, 250 calories from carbohydrates, and 150 calories, from protein.

[6] = Physical stability, formulations having one carrier; assay type: physicochemical

With O=C(CC(c1ccccc1)c1ccccc1)N1CCN(C(c2ccccc2)c2ccccc2)CC1 [Compound 1, 1-(4-benzhydrylpiperazin-1-yl)-3,3-diphenylpropan-1-one] as the molecule, how does the “solubility in propylene glycol, ethanol, and tetrahydrofuran” value [1] read?
Its value is “soluble”.

And the “solubility in water” value [1]?
Its value is “slightly soluble”.

What about the hygroscopicity [2] of the same molecule?
Its hygroscopicity is 0.09%.

What about the Papp A→B at 60 min, 1 μM ([3]; A-to-B, average) of the same molecule?
The Papp A→B at 60 min, 1 μM was over 1 ×10⁻⁶ cm/s.

And the efflux ratio at 60 min, 1 μM ([3]; read-out: Efflux Ratio (Papp (B-to-A)/Papp (A-to-B)))?
Its efflux ratio at 60 min, 1 μM is under 3.

What about the “Papp R3” value (Caco-2 cells; A-to-B) of the same molecule?
The value was 6.78 10^−6 cm/s.

What about the “Papp R3” value (Caco-2 cells; B-to-A) of the same molecule?
The value was 4.45 10^−6 cm/s.

And the permeability classification (Caco-2 cells; based on Papp(A-to-B))?
Its permeability classification is “high permeability coefficient”.

And the “efflux of compound 1” value (Caco-2 cells; based on efflux ratio)?
The value was “not considered significant”.

What about the adverse effects [4] of the same molecule?
Its adverse effects is “no adverse effects”.

And the Tmax ([5]; fed state with high fat meal)?
The Tmax was 4 to 5 h.

What about the Tmax ([5]; fed state with normal fat meal) of the same molecule?
The Tmax was 2 to 5 h.

And the half-life ([5]; fasted state)?
Its half-life is 0.05 to 0.17 h.

What about the half-life ([5]; fed state with high fat meal) of the same molecule?
The half-life was 0.8 to 2.8 h.

What about the half-life ([5]; fed state with normal fat meal) of the same molecule?
The half-life was 0.5 to 1.6 h.

With Caprylic/capric glycerides as the molecule, how does the “Physical Stability, one month” value [6] read?
Its value is over 1 month.

And the “Physical Stability, one month (cells printed in weeks)” value [6]?
Its value is over 1 week.

And the “Physical Stability, one week” value [6]?
The value was over 1 week.

With PEG 8 caprylic/capric glycerides as the molecule, how does the “Physical Stability, one month” value [6] read?
Its value is over 1 month.

What about the “Physical Stability, one week” value [6] of the same molecule?
Its value is over 1 week.
